Laboratory results reported in patent US20110251379A1, “COMPOUNDS USEFUL FOR TREATING NEURODEGENERATIVE DISORDERS” (Satori Pharmaceuticals, Inc., priority 2010, published 2011).
Where two headings read alike, the source gives them in different places.

Tests used:
Type in all cases: cell-based
Aβ-40 = test: MSD Human (6E10) Ab 3-PLEX elisa, conditioned media of 2B7 cells: Aβ-40; conditions: Homo sapiens; for IC50: Aβ-40 (superscript b); for inhibition at 20 µM: Aβ-40, 20 μM
How it was run: (§1)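 Cells grown to confluence, washed, then exposed to diluted compound (1% DMSO) for 5 hours at 37° C. Collected media mixed 1:1 with blocking buffer and added to capture plates with detection antibody. After overnight incubation at 4 degrees C, wells washed and read on MSD imager.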

Aβ-42 = test: MSD Human (6E10) Ab 3-PLEX elisa, conditioned media of 2B7 cells: Aβ-42; conditions: Homo sapiens; for IC50: Aβ-42 (superscript c); for inhibition at 20 µM: Aβ-42, 20 μM
How it was run: as §1

Aβ-38 = test: MSD Human (6E10) Ab 3-PLEX elisa, conditioned media of 2B7 cells: Aβ-38; conditions: Homo sapiens, Aβ-38 (superscript a)
How it was run: as §1

Row | Compound | IC50 (Aβ-40; read-out: 50% reduction value) [µM] | IC50 (Aβ-40; read-out: IC50 range) [µM] | IC50 (Aβ-42; read-out: 50% reduction value) [µM] | IC50 (Aβ-42; read-out: IC50 range) [µM] | IC50 (Aβ-38; read-out: 50% reduction value) [µM] | IC50 (Aβ-38; read-out: IC50 range) [µM] | inhibition at 20 µM (Aβ-40) [%] | inhibition at 20 µM (Aβ-42) [%]
1 | CC(C)C(=O)N1CCOC(OC2CC[C@]34C[C@]35CC[C@]3(C)[C@@H]6C(OC([C@H](OC(=O)N7CCC7)C(C)C)C[C@H]6C)[C@H](O)[C@@]3(C)C5CC[C@H]4C2(C)C)C1 (stereo partly shown) | 1 to 10 | > 10 | < 1 | < 1 | < 1 | < 1 | – | –
2 | CC(C)CC(=O)N1CCOC(OC2CC[C@]34C[C@]35CC[C@]3(C)[C@@H]6C(OC([C@H](OC(=O)N7CCC7)C(C)C)C[C@H]6C)[C@H](O)[C@@]3(C)C5CC[C@H]4C2(C)C)C1 (stereo partly shown) | 1 to 10 | 1 to 10 | 1 to 10 | 1 to 10 | 1 to 10 | 1 to 10 | – | –
3 | CC(C)[C@@H](OC(=O)N1CCC1)C1C[C@@H](C)[C@H]2C(O1)[C@H](O)[C@@]1(C)C3CC[C@H]4C(C)(C)C(OC(=O)N5CC(NCC(F)(F)F)C5)CC[C@@]45C[C@@]35CC[C@]21C (stereo partly shown) | > 10 | – | < 1 | – | 1 to 10 | – | – | –
4 | CS[C@@H](C1C[C@@H](C)[C@H]2C(O1)[C@H](O)[C@@]1(C)C3CC[C@H]4C(C)(C)C(O)CC[C@@]45C[C@@]35CC[C@]21C)C(C)(C)O (stereo partly shown) | > 10 | – | 1 to 10 | – | < 1 | – | – | –
5 | C[C@@H]1CC([C@H]([S+](C)[O-])C(C)(C)O)OC2[C@H]1[C@@]1(C)CC[C@@]34C[C@@]35CCC(O)C(C)(C)[C@@H]5CCC4[C@]1(C)[C@H]2O (stereo partly shown) | – | – | – | – | 1 to 10 | – | 25 to 75 | 25 to 75
6 | C[C@@H]1CC([C@@H](C(C)(C)O)S(C)(=O)=O)OC2[C@H]1[C@@]1(C)CC[C@@]34C[C@@]35CCC(O)C(C)(C)[C@@H]5CCC4[C@]1(C)[C@H]2O (stereo partly shown) | – | – | – | – | 1 to 10 | – | 25 to 75 | 25 to 75
7 | CC[S+]([O-])[C@@H](C1C[C@@H](C)[C@H]2C(O1)[C@H](O)[C@@]1(C)C3CC[C@H]4C(C)(C)C(O[C@H]5CN(C6COC6)CCO5)CC[C@@]45C[C@@]35CC[C@]21C)C(C)(C)O (stereo partly shown) | – | – | – | – | 1 to 10 | – | 25 to 75 | 25 to 75
8 | CO[C@@H](C1C[C@@H](C)[C@H]2C(O1)[C@H](O)[C@@]1(C)C3CC[C@H]4C(C)(C)C(OC(=O)N5CCC5)CC[C@@]45C[C@@]35CC[C@]21C)C(C)(C)O (stereo partly shown) | > 10 | – | 1 to 10 | – | 1 to 10 | – | – | –
9 | CNC(=O)O[C@H](C(C)C)C1C[C@@H](C)[C@H]2C(O1)[C@H](O)[C@@]1(C)C3CC[C@H]4C(C)(C)C(OC(=O)NC5CNC5)CC[C@@]45C[C@@]35CC[C@]21C (stereo partly shown) | 1 to 10 | – | < 1 | < 1 | < 1 | – | – | –
10 | CCO[C@@H]([C@H]1C[C@@H](C)[C@H]2[C@H](O1)[C@H](O)[C@@]1(C)[C@@H]3CC[C@H]4C(C)(C)[C@@H](OC(=O)NC5CN(C)C5)CC[C@@]45C[C@@]35CC[C@]21C)C(C)(C)O | < 1 | 1 to 10 | < 1 | < 1 | < 1 | < 1 | – | –
11 | CCO[C@@H]([C@H]1C[C@@H](C)[C@H]2[C@H](O1)[C@H](O)[C@@]1(C)[C@@H]3CC[C@H]4C(C)(C)[C@@H](OC5CNCCO5)CC[C@@]45C[C@@]35CC[C@]21C)C(C)(C)O (stereo partly shown) | 1 to 10 | 1 to 10 | < 1 | < 1 | < 1 | < 1 | – | –
12 | CCO[C@@H]([C@H]1C[C@@H](C)[C@H]2[C@H](O1)[C@H](O)[C@@]1(C)[C@@H]3CC[C@H]4C(C)(C)[C@@H](OC5CN(C)CCO5)CC[C@@]45C[C@@]35CC[C@]21C)C(C)(C)O (stereo partly shown) | 1 to 10 | 1 to 10 | < 1 | < 1 | < 1 | < 1 | – | –
13 | CCO[C@@H]([C@H]1C[C@@H](C)[C@H]2[C@H](O1)[C@H](O)[C@@]1(C)[C@@H]3CC[C@H]4C(C)(C)[C@@H](OC5CN(C(=O)C(C)C)CCO5)CC[C@@]45C[C@@]35CC[C@]21C)C(C)(C)O (stereo partly shown) | 1 to 10 | 1 to 10 | < 1 | < 1 | < 1 | < 1 | – | –
14 | C=C(C)CO[C@@H](C1C[C@@H](C)[C@H]2C(O1)[C@H](O)[C@@]1(C)C3CC[C@H]4C(C)(C)C(O[C@H]5CN(C6COC6)CCO5)CC[C@@]45C[C@@]35CC[C@]21C)C(C)(C)O (stereo partly shown) | 1 to 10 | – | < 1 | < 1 | < 1 | < 1 | – | –
15 | CC(C)CO[C@@H](C1C[C@@H](C)[C@H]2C(O1)[C@H](O)[C@@]1(C)C3CC[C@H]4C(C)(C)C(O[C@H]5CN(C6COC6)CCO5)CC[C@@]45C[C@@]35CC[C@]21C)C(C)(C)O (stereo partly shown) | 1 to 10 | 1 to 10 | 1 to 10 | – | < 1 | < 1 | – | –
16 | CO[C@@H]([C@H]1C[C@@H](C)[C@H]2[C@H](O1)[C@H](O)[C@@]1(C)[C@@H]3CC[C@H]4C(C)(C)[C@@H](OC5CN(C(=O)C(C)C)CCO5)CC[C@@]45C[C@@]35CC[C@]21C)C(C)(C)O (stereo partly shown) | 1 to 10 | – | < 1 | < 1 | < 1 | < 1 | – | –
17 | C[C@@H]1CC([C@@H]2OCOC2(C)C)OC2[C@H]1[C@@]1(C)CC[C@@]34C[C@@]35CCC(O[C@H]3CN(C6COC6)CCO3)C(C)(C)[C@@H]5CCC4[C@]1(C)[C@H]2O (stereo partly shown) | – | – | > 10 | – | 1 to 10 | – | 25 to 75 | –
18 | C=C(C)CO[C@@H](C1C[C@@H](C)[C@H]2C(O1)[C@H](O)[C@@]1(C)C3CC[C@H]4C(C)(C)C(O)CC[C@@]45C[C@@]35CC[C@]21C)C(C)(C)O (stereo partly shown) | 1 to 10 | 1 to 10 | < 1 | < 1 | < 1 | < 1 | – | –
19 | CO[C@@H](C1C[C@@H](C)[C@H]2C(O1)[C@H](O)[C@@]1(C)C3CC[C@H]4C(C)(C)C(OC(=O)NC5COC5)CC[C@@]45C[C@@]35CC[C@]21C)C(C)(C)O (stereo partly shown) | – | – | < 1 | < 1 | < 1 | – | 25 to 75 | –
20 | CO[C@@H](C1C[C@@H](C)[C@H]2C(O1)[C@H](O)[C@@]1(C)C3CC[C@H]4C(C)(C)C(OC(=O)NC5CN(C)C5)CC[C@@]45C[C@@]35CC[C@]21C)C(C)(C)O (stereo partly shown) | 1 to 10 | 1 to 10 | < 1 | < 1 | < 1 | 1 to 10 | – | –
21 | CO[C@@H](C1C[C@@H](C)[C@H]2C(O1)[C@H](O)[C@@]1(C)C3CC[C@H]4C(C)(C)C(OC(=O)NC5CNC5)CC[C@@]45C[C@@]35CC[C@]21C)C(C)(C)O (stereo partly shown) | 1 to 10 | 1 to 10 | < 1 | < 1 | < 1 | – | – | –
22 | CC(C)[C@@H](OC(=O)N1CCC1)C1C[C@@H](C)[C@H]2C(O1)[C@H](O)[C@@]1(C)C3CC[C@H]4C(C)(C)C(OC(=O)N5CCN(S(C)(=O)=O)CC5)CC[C@@]45C[C@@]35CC[C@]21C (stereo partly shown) | 1 to 10 | 1 to 10 | < 1 | < 1 | < 1 | < 1 | – | –
23 | CC(=O)N1CCN(C(=O)OC2CC[C@]34C[C@]35CC[C@]3(C)[C@@H]6C(OC([C@H](OC(=O)N7CCC7)C(C)C)C[C@H]6C)[C@H](O)[C@@]3(C)C5CC[C@H]4C2(C)C)CC1 (stereo partly shown) | 1 to 10 | 1 to 10 | < 1 | < 1 | < 1 | < 1 | – | –
24 | CCNC(=O)O[C@H](C(C)C)C1C[C@@H](C)[C@H]2C(O1)[C@H](O)[C@@]1(C)C3CC[C@H]4C(C)(C)C(OC(=O)N5CCOCC5)CC[C@@]45C[C@@]35CC[C@]21C (stereo partly shown) | – | – | – | < 1 | < 1 | – | 25 to 75 | –
25 | CCNC(=O)O[C@H](C(C)C)C1C[C@@H](C)[C@H]2C(O1)[C@H](O)[C@@]1(C)C3CC[C@H]4C(C)(C)C(OC(N)=O)CC[C@@]45C[C@@]35CC[C@]21C (stereo partly shown) | 1 to 10 | – | < 1 | – | < 1 | – | – | –
26 | CCNC(=O)O[C@H](C(C)C)C1C[C@@H](C)[C@H]2C(O1)[C@H](O)[C@@]1(C)C3CC[C@H]4C(C)(C)C(OC(=O)NC5CNC5)CC[C@@]45C[C@@]35CC[C@]21C (stereo partly shown) | 1 to 10 | > 10 | < 1 | < 1 | < 1 | < 1 | – | –
27 | CNC(=O)OC1CC[C@]23C[C@]24CC[C@]2(C)[C@@H]5C(OC([C@H](OC(=O)N6CCC6)C(C)C)C[C@H]5C)[C@H](O)[C@@]2(C)C4CC[C@H]3C1(C)C (stereo partly shown) | 1 to 10 | 1 to 10 | < 1 | < 1 | < 1 | < 1 | – | –
28 | CC(C)[C@@H](OC(=O)N1CCC1)C1C[C@@H](C)[C@H]2C(O1)[C@H](O)[C@@]1(C)C3CC[C@H]4C(C)(C)C(OC(=O)N5CCn6c(nnc6C(F)(F)F)C5)CC[C@@]45C[C@@]35CC[C@]21C (stereo partly shown) | – | – | < 1 | – | < 1 | – | 25 to 75 | –
29 | CC(C)[C@@H](OC(=O)N1CCC1)C1C[C@@H](C)[C@H]2C(O1)[C@H](O)[C@@]1(C)C3CC[C@H]4C(C)(C)C(OC(=O)N5CC6(COC6)C5)CC[C@@]45C[C@@]35CC[C@]21C (stereo partly shown) | > 10 | – | < 1 | – | < 1 | – | – | –
30 | CC(C)[C@@H](OC(=O)N1CCC1)C1C[C@@H](C)[C@H]2C(O1)[C@H](O)[C@@]1(C)C3CC[C@H]4C(C)(C)C(OC(=O)NC5COC5)CC[C@@]45C[C@@]35CC[C@]21C (stereo partly shown) | > 10 | – | < 1 | – | < 1 | – | – | –
